In publication PMC12686243, “Synthesis and preclinical evaluation of FAP-targeting radiotracers for PET and optical imaging” (EJNMMI Radiopharmacy and Chemistry, 2025):
Where two headings read alike, the source gives them in different places.

Legend:
[1] = target: T1, hFAP (vital hFAP-HT1080 cells) (Homo sapiens, UniProt Q12884); assay: real-time binding (LigandTracer) to vital hFAP-HT1080 cells; conditions: for Bmax (%): fitted per individual curve, range; for Bmax (%) / ka / kd: room temperature; for ka / kd: global fit, 1:1 model
T1 construct: expressed in transfected cells; host or cells: HT1080 (human fibrosarcoma), lentiviral transduction
T1 sequence (Q12884 1-760): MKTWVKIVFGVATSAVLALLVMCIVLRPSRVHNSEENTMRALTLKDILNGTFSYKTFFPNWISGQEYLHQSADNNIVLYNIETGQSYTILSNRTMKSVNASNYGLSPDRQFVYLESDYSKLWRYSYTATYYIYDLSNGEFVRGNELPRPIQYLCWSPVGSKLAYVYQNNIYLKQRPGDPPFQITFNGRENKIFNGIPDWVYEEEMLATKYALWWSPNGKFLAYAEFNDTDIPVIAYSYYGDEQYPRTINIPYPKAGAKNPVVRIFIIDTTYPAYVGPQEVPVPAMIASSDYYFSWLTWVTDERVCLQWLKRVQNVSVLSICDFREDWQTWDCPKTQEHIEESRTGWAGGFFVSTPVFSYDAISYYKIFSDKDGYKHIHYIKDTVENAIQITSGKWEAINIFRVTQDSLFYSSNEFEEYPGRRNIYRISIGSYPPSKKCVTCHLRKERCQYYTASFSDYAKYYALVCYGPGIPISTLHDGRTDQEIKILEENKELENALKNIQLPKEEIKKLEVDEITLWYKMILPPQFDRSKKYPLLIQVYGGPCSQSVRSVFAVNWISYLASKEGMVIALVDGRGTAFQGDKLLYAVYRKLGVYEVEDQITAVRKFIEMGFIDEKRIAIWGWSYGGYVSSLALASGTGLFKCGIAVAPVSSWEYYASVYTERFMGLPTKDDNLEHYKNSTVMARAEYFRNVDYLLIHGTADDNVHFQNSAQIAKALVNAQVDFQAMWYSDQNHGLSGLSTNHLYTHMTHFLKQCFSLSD
Procedure: (§1) To determine binding kinetics (association rate constant ka, dissociation rate constant kd, and thermodynamic dissociation constant KD), real-time assay systems (LigandTracer Yellow/White for radioactivity and Green with Red/NIR + and NIR + + /IR detectors for fluorescence; Ridgeview Instruments AB, Sweden) were utilized. In a 100 mm petri dish, cells or tissue sections in medium (3–4 mL total volume), are located on one side, while the radioactive or fluorescent signal is detected on the opposite, elevated side. Rotation on an inclined base in set intervals (30 s) allows continuous measurement of signal in the target (cells/tissue) against background area (no cells/tissue). Experiments were performed at room temperature, using CO2-independent medium, usually with 0.5–1% w/v bovine serum albumin, (#1ETA, Carl Roth, Germany). Association was determined through incubation with two distinct concentrations (between 1–5 and 4.5–10 nM, 60 min each, additive) for each compound. For that purpose, the same ligand preparation was typically employed for radioactive and fluorescent detection. This was followed by replacement with fresh medium and observation of dissociation for at least 2 h. Additionally, the dissociation rate constant was further investigated beyond 6 h, either using fluorescent detection or via gallium-67 (t1/2: 78.3 h). This approach provides reliable kinetic measurements in a 1:1 interaction setting, as previously shown (Onell and Andersson [2005]).
Binding data was evaluated using TraceDrawer (1.9.2, Ridgeview Instruments AB, Sweden). Traces were imported, potential spikes (> 100% sudden signal increases over previous datapoints) removed and each trace was normalized to its own baseline (= 0%) and highest value (= 100%, typically at the end of the second association phase). This allows comparing data across experiments and ultimately global fitting, without differences, e.g. of molar activity, affecting it. Typically, at least 3 individual traces per ligand, substrate and modality were recorded. Data was fitted in TraceDrawer using a 1:1 interaction model, with/without accounting for bulk effect. A 1:1 interaction is the simplest model, as it describes the binding of a ligand at a constant concentration to the target, with each one molecule of ligand binding to one molecule of target.

[2] = target: T2, hFAP (hFAP-HT1080 cells) (Homo sapiens, UniProt Q12884); assay: saturation binding to hFAP-HT1080 cells; conditions: 60 min, 37 °C
T2 construct: expressed in transfected cells; host or cells: HT1080 (human fibrosarcoma), lentiviral transduction
T2 sequence (Q12884 1-760): T1 sequence (Q12884 1-760)
Procedure: Saturation binding (n ≥ 3, in triplicates) was performed to estimate thermodynamic dissociation constants (KD) and number of binding sites (Bmax). hFAP-HT1080 were cultured under the conditions described above. On the day of the experiment, 48-well plates were kept at 37 °C in an incubation chamber. The medium was replaced with 200 µL CO2-independent medium, (Gibco #18045088, ThermoFisher Germany) for total binding (TB) conditions. For the assessment of nonspecific binding (NSB), the same medium was used, containing 14 µM of FAPI-04 (in DMSO, resulting in 0.007% v/v). After 15 min preincubation for TB/NSB, 200 µL of each eight serial 1:1 dilutions (75 to 0.12 nM) of the respective radioligand were added (in triplicate), resulting in a final concentration per well of 35–0.06 nM. Cells were incubated with the respective radioligand for 60 min at 37 °C. The incubation medium was discarded and the wells washed with ice-cold PBS (2x ~ 30 s). The cells were then lysed with 500 µL 0.1 M NaOH + 1% SDS. For radioactivity detection, 400 µL of lysate was measured in a gamma counter (Perkin Elmer Wizard 1480). Additionally, binding to polystyrene in absence of cells was determined in 400 µL of lysate, along with the activity of all dilutions (50 µL). However, intrinsic plastic adherence of both compounds was very low. All counts were decay-corrected to a reference time (end of radiolabeling). Protein content was determined in an additional plate, subjected to the same conditions (pre-incubation, incubation and washing) by BCA assay and a mean value (µg/mL) used for this particular dataset (all replicate plates). From CPM measurements, final values (pmol/mg protein) were calculated using mean protein content and molar activity. Similarly, lysates from a random plate were subjected to fluorescent detection. For that purpose, 100 µL were pipetted bubble free into a transparent bottom 96 well imaging plate (Greiner Bio-One, µclear #655087). The plate was then imaged on a Typhoon 9500 bio imager (GE, USA) using either the Cy5 or IR-long filter-set (350–500 PMT voltage). From these images, fluorescence density (counts/mm^2) was determined (Bio-Rad, Quantity One 4.6.8). All processed data was then subjected to non-linear iterative curve fitting (GraphPad Prism 10) to yield Bmax (in pmol/mg protein or CNT/mm^2) and KD (in nM).

[3] = test system: WT-HT1080 cells; assay: real-time binding control on wild type HT1080 cells; set-up: species or system human; conditions: cells lacking substantial FAP expression
Procedure: as §1, with “This approach provides reliable kinetic measurements in a 1:1 interaction setting, as previously shown (Onell and Andersson [2005]).” left out

[4] = from global fit of ka and kd, read-out: KD
[5] = real-time binding, live cells, read-out: binding affinity (KD)
[6] = n = 1, read-out: KD, fluorescent label detection, best fit
[7] = nonspecific binding with 14 µM FAPI-04, n = 3
[8] = nonspecific binding with 14 µM FAPI-04, n = 3, read-out: KD, radioactive label detection, best fit

SMILES | Bmax (%) [1] | Kd [1, 4] [nM] | ka [1] [M⁻¹ s⁻¹] | kd [1] [s⁻¹] | Kd [1, 5] [nM] | Bmax, fluorescent label detection, best fit ([2]; n = 1) | Kd [2, 6] [nM] | Bmax, radioactive label detection, best fit [2, 7] [pmol/mg/protein] | Kd [2, 8] [nM] | binding to wild type HT1080 cells [3]
CN(CCCN1CCN(C(=O)[C@H](CCCCNC(=O)CC[C@H](C(=O)[O-])N2CCN(CC(=O)[O-])CCN(CC(=O)[O-])CC2)NC(=O)CCOCCOCCOCCOCCNC(=O)CCCCC[N+]2=C(C=CC=CC=C3N(CCCS(=O)(=O)O)c4ccc(S(=O)(=O)O)cc4C3(C)C)C(C)(CCCS(=O)(=O)O)c3cc(S(=O)(=O)[O-])ccc32)CC1)c1ccc2nccc(C(=O)NCC(=O)N3CC(F)(F)C[C@H]3C#N)c2c1.[68Ga+3] (some centres unmarked) [[^68Ga]Ga-NODAGA-FAP647] | 84–98% | 0.0138 | 484000 | 6.67e-06 | 0.014 | 4.8 * 10^5 AU | 0.76 | 1.63 | 0.99 | lacking any binding
CN(CCCN1CCN(C(=O)[C@H](CCCCNC(=O)CC[C@H](C(=O)[O-])N2CCN(CC(=O)[O-])CCN(CC(=O)[O-])CC2)NC(=O)CCOCCOCCOCCOCCNC(=O)CCCCCN2C(=CC=C3CCCC(C=CC4=[N+](CCCCS(=O)(=O)[O-])c5ccc(S(=O)(=O)O)cc5C4(C)C)=C3Oc3ccc(S(=O)(=O)O)cc3)C(C)(C)c3cc(S(=O)(=O)O)ccc32)CC1)c1ccc2nccc(C(=O)NCC(=O)N3CC(F)(F)C[C@H]3C#N)c2c1.[68Ga+3] [[^68Ga]Ga-NODAGA-FAP800] | 91–96% | 0.0576 | 411000 | 2.37e-05 | 0.058 | 5.7 * 10^5 AU | 1.24 | 1.41 | 1.65 | lacking any binding
